Measured values as given in patent US6841548B2, “Pharmaceutical preparations containing estra-1,3,5(10)-triene derivatives” (Schering AG, priority 1994, dated 2005).

What was measured:
[1] = tested on: ovariectomated rats; experiment: Hepatic parameters: HDL cholesterol levels in serum, enzymatic test; assay type: in vivo, rat; settings: Experiment A
Excerpt: (§1) The laboratory animals, adult female rats (breeder: HSD/WIN:WU) were ovariectomated on day 14. Treatment started two weeks later by a single oral application per day of the respective test substance. The dosages given for esters refer to the steroid portion of the substances. The tests were made in three groups (A, B, C) at various points in time. This is why there is a deviation in control group values. The tests of series A, B, and C can therefore be compared among each other if the values for the respective control groups are taken into account.
(§2) The procedure of allocating animals to groups was randomized. The experiment was carried out as a block test. The animals were weighed at the beginning and at the end of the experiment.
(§3) The start of treatment was defined as day 1 (=d1), treatment was finished on day 7 (=d7); the animals were killed on day 8, various organs (uteri, adrenal glands, liver) were removed, weighed and deep-frozen (−196° C.) for further examination.
(§4) Blood was taken from the retrobulbar plexus under ether anaesthesia prior to treatment (d0), and on (d4) and (d8). IGF1, angiotensin I, cholesterol and HDL cholesterol were determined in the serum obtained.
(§5) cholesterol/HDL: enzymatic tests, photometric determination, reagents by Dr Bruno Lange GmbH.

[2] = tested on: ovariectomated rats; experiment: Hepatic parameters: total cholesterol levels in serum, enzymatic test; assay type: in vivo, rat; settings: Experiment A
Method: The laboratory animals, adult female rats (breeder: HSD/WIN:WU) were ovariectomated on day 14. Treatment started two weeks later by a single oral application per day of the respective test substance. The dosages given for esters refer to the steroid portion of the substances. The tests were made in three groups (A, B, C) at various points in time.
as §2, §3, §4, §5

[3] = oral, humans, Goldzieher study; cited from earlier work
[4] = tested on: ovariectomated rats; experiment: Hepatic parameters: serum angiotensin I, modified RIA for renin activity; assay type: in vivo, rat; design: Angiotensin I: unit not given here; settings: for Angiotensin I: Experiment A
Excerpt: as §1, §2, §3, §4
angiotensin: modified RIA for renin activity by Sorin Co.

[5] = tested on: ovariectomated rats; experiment: Oral estrogenic effects: weights of adrenal glands in ovariectomated rats; assay type: in vivo, rat
Excerpt: as §1, §2, §3

[6] = tested on: ovariectomated rats; experiment: Oral estrogenic effects: uterus weights in ovariectomated rats; assay type: in vivo, rat
Excerpt: as §1, §2, §3

[7] = tested on: ovariectomated rats; experiment: Oral estrogen treatment: serum IGF1 (somatomedin C), RIA; assay type: in vivo, rat; design: unit not given here; settings: Experiment A
Excerpt: as §1, §2, §3, §4
IGF1: RIA by bioMérieux Co.;

[8] = day 4, 0.1 μg/animal/day p.o. d1-d7
[9] = day 4, 1 μg/animal/day p.o. d1-d7
[10] = day 4, 10 μg/animal/day p.o. d1-d7
[11] = day 4, 100 μg/animal/day p.o. d1-d7
[12] = day 8, 0.1 μg/animal/day p.o. d1-d7
[13] = day 8, 1 μg/animal/day p.o. d1-d7
[14] = day 8, 10 μg/animal/day p.o. d1-d7
[15] = day 8, 100 μg/animal/day p.o. d1-d7
[16] = Experiment A, 0.1 μg/animal/day p.o. d1-d7
[17] = Experiment A, 1 μg/animal/day p.o. d1-d7
[18] = Experiment A, 10 μg/animal/day p.o. d1-d7
[19] = Experiment A, 100 μg/animal/day p.o. d1-d7
[20] = Experiment B, 10 μg/animal/day p.o. d1-d7

Q: What does the source list for `C#C[C@]1(O)CC[C@H]2[C@@H]3CCc4cc(O)ccc4[C@H]3CC[C@@]21C` [EE, ethinyl estradiol]?
A: HDL cholesterol levels (mean value ± standard deviation) [1, 8]: 49.6 ± 2.9 mg/dL; HDL cholesterol levels (mean value ± standard deviation) [1, 9]: 47.1 ± 8.5 mg/dL; HDL cholesterol levels (mean value ± standard deviation) [1, 10]: 19.5 ± 8.4 mg/dL; HDL cholesterol levels (mean value ± standard deviation) [1, 11]: 3.6 ± 1.3 mg/dL; HDL cholesterol levels (mean value ± standard deviation) [1, 12]: 52.2 ± 4.1 mg/dL; HDL cholesterol levels (mean value ± standard deviation) [1, 13]: 49.5 ± 6.9 mg/dL; HDL cholesterol levels (mean value ± standard deviation) [1, 14]: 26.5 ± 7.8 mg/dL; HDL cholesterol levels (mean value ± standard deviation) [1, 15]: 2.4 ± 0.9 mg/dL; Total cholesterol levels (mean value ± standard deviation) [2, 8]: 81.0 ± 3.3 mg/dL; Total cholesterol levels (mean value ± standard deviation) [2, 9]: 82.4 ± 15.8 mg/dL; Total cholesterol levels (mean value ± standard deviation) [2, 10]: 30.3 ± 9.6 mg/dL; Total cholesterol levels (mean value ± standard deviation) [2, 11]: 6.8 ± 3.2 mg/dL; Total cholesterol levels (mean value ± standard deviation) [2, 12]: 86.5 ± 9.6 mg/dL; Total cholesterol levels (mean value ± standard deviation) [2, 13]: 80.2 ± 14.4 mg/dL; Total cholesterol levels (mean value ± standard deviation) [2, 14]: 39.8 ± 10.2 mg/dL; Total cholesterol levels (mean value ± standard deviation) [2, 15]: 5.5 ± 3.3 mg/dL; Highest AUC found, measured 0 to 24 hours after application [3]: 2.121 ng·h/mL; Lowest AUC, measured 0 to 24 hours after application [3]: 0.284 ng·h/mL; Angiotensin I [4, 8]: 408.2 ± 31.2; Angiotensin I [4, 9]: 402.2 ± 30.3; Angiotensin I [4, 10]: 572.2 ± 35.0; Angiotensin I [4, 11]: 930.1 ± 146.2; Angiotensin I [4, 12]: 473.7 ± 19.7; Angiotensin I [4, 13]: 492.6 ± 29.1; Angiotensin I [4, 14]: 498.7 ± 26.1; Angiotensin I [4, 15]: 833.1 ± 137.2; Effect on angiotensin I (AI) values, in words ([4]; doses of 10 or 100 μg, detectable as early as day 4): sharp increases of AI; Weights of adrenal glands (mean value) [5, 16]: 53.7 mg; Weights of adrenal glands (mean value) [5, 17]: 58.9 mg; Weights of adrenal glands (mean value) [5, 18]: 59.0 mg; Weights of adrenal glands (mean value) [5, 19]: 80.8 mg; Weights of adrenal glands (mean value) [5, 20]: 56.6 mg; Uterus weights (mean value) [6, 16]: 152.2 mg; Uterus weights (mean value) [6, 17]: 195.8 mg; Uterus weights (mean value) [6, 18]: 282.4 mg; Uterus weights (mean value) [6, 19]: 441.2 mg; Uterus weights (mean value) [6, 20]: 352.59 mg; IGF1 (= somatomedin C) ([7]; 100 μg/animal/day p.o. d1-d7, d 0 (prior to treatment)): 704.6 ± 70.4; IGF1 (= somatomedin C) ([7]; 100 μg/animal/day p.o. d1-d7, d 4): 547.0 ± 88.7; IGF1 (= somatomedin C) ([7]; 100 μg/animal/day p.o. d1-d7, d 8): 393.6 ± 71.1
